Reference: ChEMBL document CHEMBL1149115, “Unraveling the active conformation of urotensin II” (J Med Chem, 2004)

Test: Effective concentration of compound in producing vasoconstrictions was determined
Format: functional

SMILES	pD2
CC(C)[C@H](NC(=O)[C@@H]1CSSC(C)(C)[C@@H](NC(=O)[C@@H](N)CC(=O)O)C(=O)N[C@@H](Cc2ccccc2)C(=O)N[C@@H](Cc2c[nH]c3ccccc23)C(=O)N[C@@H](CCCCN)C(=O)N[C@@H](Cc2ccc(O)cc2)C(=O)N1)C(=O)O	9.6
CC(C)[C@H](NC(=O)[C@@H]1CCSSC[C@H](NC(=O)[C@@H](N)CC(=O)O)C(=O)N[C@@H](Cc2ccccc2)C(=O)N[C@@H](Cc2c[nH]c3ccccc23)C(=O)N[C@@H](CCCCN)C(=O)N[C@@H](Cc2ccc(O)cc2)C(=O)N1)C(=O)O	< 6.5
CC(C)[C@H](NC(=O)[C@@H]1CSSC[C@@H](NC(=O)[C@H](CC(=O)O)NC(=O)[C@H]2CCCN2C(=O)[C@@H](NC(=O)[C@@H](N)CCC(=O)O)[C@@H](C)O)C(=O)N[C@H](Cc2ccccc2)C(=O)N[C@@H](Cc2c[nH]c3ccccc23)C(=O)N[C@H](CCCCN)C(=O)N[C@@H](Cc2ccc(O)cc2)C(=O)N1)C(=O)O	8.3
CC(C)[C@H](NC(=O)[C@@H]1NC(=O)[C@H](Cc2ccc(O)cc2)NC(=O)[C@H](CCCCN)NC(=O)[C@H](Cc2c[nH]c3ccccc23)NC(=O)[C@H](Cc2ccccc2)NC(=O)[C@H](NC(=O)[C@@H](N)CC(=O)O)C(C)(C)SSC1(C)C)C(=O)O	8.2
CC(C)[C@H](NC(=O)[C@@H]1NC(=O)[C@H](Cc2ccc(O)cc2)NC(=O)[C@H](CCCCN)NC(=O)[C@H](Cc2c[nH]c3ccccc23)NC(=O)[C@H](Cc2ccccc2)NC(=O)[C@@H](NC(=O)[C@@H](N)CC(=O)O)CSSC1(C)C)C(=O)O	6.7
CC(C)[C@H](NC(=O)[C@@H]1CSSC[C@@H](NC(=O)[C@@H](N)CC(=O)O)C(=O)N[C@@H](Cc2ccccc2)C(=O)N[C@@H](Cc2c[nH]c3ccccc23)C(=O)N[C@@H](CCCCN)C(=O)N[C@@H](Cc2ccc(O)cc2)C(=O)N1)C(=O)O	8.6
